For one test, the target named is T1, bovine erythrocyte GPx1 (Bos taurus, UniProt P00435).
T1 construct: the isolated enzyme from bovine erythrocytes; purchased Sigma-Aldrich (Taufkirchen, Germany); host or cells: isolated from bovine erythrocytes
T1 sequence (P00435 1-205): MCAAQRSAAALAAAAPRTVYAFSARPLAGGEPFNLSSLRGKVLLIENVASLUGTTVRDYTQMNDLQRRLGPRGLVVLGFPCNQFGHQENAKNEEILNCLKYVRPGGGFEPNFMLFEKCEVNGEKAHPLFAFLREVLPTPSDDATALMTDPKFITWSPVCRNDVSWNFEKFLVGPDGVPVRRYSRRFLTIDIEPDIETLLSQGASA
The test is described as follows: GPx1 enzyme activity assay (NADPH-coupled, t-BHP substrate). The format is biochemical. The arrangement: key to GPx1 inhibition: no impact (0); weak impact (+); strong impact (++). The note with it: for IC50: n ≥ 3; for GPx1 inhibition: summary grade. The source says:
The inhibition of GPx1 by pentathiepins has already been reported by us previously. […] The resulting glutathione disulfide (GSSG) was reduced back to GSH by glutathione reductase (GR), thereby converting NADPH to NADP^+, which can be photometrically monitored at λ = 340 nm. The rate of NADPH consumption was used to quantify GPx1 enzyme activity. Dose-response graphs are presented in Figure 5a, and the corresponding IC50 values in Table 1. Relative IC50 describing the half-maximal inhibition of the enzyme were derived from the inflection point of the sigmoidal shaped graphs. Absolute IC50 was calculated via interpolation of the standard curve resulting in the concentration at which 50% of the GPx1 was inhibited.
The potential of the pentathiepins to inhibit the GPx1 was assessed with an enzymatic assay as described previously. It is based on the catalytic cycle of the enzyme coupled to an NADPH detection reaction. Here, a bovine erythrocyte GPx1 with a sequence similarity of 87% to the human homolog was used for reasons of affordability. The GPx1 was treated with either vehicle (solvent DMF) or the respective pentathiepin, and the reaction started by addition of tert-butylhydroperoxide (t-BHP). For the assay, all solutions were prepared with potassium phosphate buffer (50 mM, pH 7.4, EDTA 1.1 mM, Triton-X 0.01%), except for the inhibitors and t-BHP, which were diluted in DMF or water, respectively. First, 180 µL of a 0.125 U/mL GPx1 solution and 30 µL of a serial dilution of the putative inhibitor dissolved in DMF were added in triplicate to the wells of a UV-transparent 96-well plate. As a negative control, only DMF was appliedat the same dilution as the inhibitor solution.. All reagents including the GPx1 solution were pipetted. Then, 30 µL of a GSH solution (2.5 mM) and 30 µL of a GR/NADPH solution (2 U/mL; 2.0 mM) were added per well. The reaction was started by adding 30 µL of a t-BHP solution (5.0 mM). […] GPx1 activity was indirectly measured by monitoring the decrease of NADPH at λ = 340 nm for 30 min every 15 s at room temperature. The GPx1 activity of the treated samples was related to the solvent treated control and the relative activities analyzed in Prism 7 (GraphPad) via dose–response graphs and the calculation of the inflection point corresponding to the relative IC50 (half-maximal inhibitory concentration). The relative IC50 corresponds to the concentration at which half of the effect of the test compound is achieved. An absolute IC50, where 50% of the enzyme is inhibited, was calculated via interpolation of the sigmoidal graph.

The next test concerns GR/CAT. The test is described as follows: GR/CAT inhibition (summary of off-target assays). To be noted: summary grade. Also noted: key: no impact (0); weak impact (+); strong impact (++). The class given is biochemical. The protocol:
To assess the specificity of inhibitors toward the GPx1, we performed enzymatic assays with other relevant antioxidant enzymes. These included the glutathione reductase (GR; yeast-derived), which is an auxiliary component of the GPx1 assay, and catalase (CAT; bovine), a key redox enzyme that fulfils a similar enzymatic task as the GPx1 by detoxifying hydrogen peroxide. None of the pentathiepins altered the activity of either enzyme at a concentration of 25 µM (Figure 5b,c).
Off-target assays were conducted to assess the specificity of the pentathiepins for inhibiting the GPx1; these were the activities of GR and CAT (from bovine liver) that have previously been described. As the baker’s yeast GR is an important component in the GPx assay, its inhibition by pentathiepins had to be excluded. A fixed pentathiepin concentration of 25 µM was tested in triplicate, following the same principle as mentioned before, by monitoring the consumption of NADPH by the GR at λ = 340 nm while GSSG is reduced back to GSH. All assay components were prepared in potassium phosphate buffer (50 mM, pH 7.4, 1.1 mM EDTA, 0.01% Triton-X solution), except for the inhibitor that was diluted in DMF. Subsequently, 180 µL of buffer was added per well followed by 30 µL of a 2.0 U/mL GR solution, 30 µL of a 2.0 mM NADPH solution, and 30 µL of a 250 µM pentathiepin solution or 30 µL of DMF as negative control. Finally, to start the reaction, 30 µL of a 2.5 mM GSSG solution was added, resulting in final concentrations of 0.2 U/mL of GR, 0.2 mM of NADPH, 25 µM of pentathiepin, and 0.25 mM of GSSG. After measuring the decrease of NADPH every 15 s for 30 min at room temperature, the relative inhibition of the GR was calculated by relating the activity of the pentathiepin-treated samples to the negative control.
The CAT activity assay is based on the principle that in the presence of H2O2 and heat, and dichromate in acetic acid is reduced to chromic acetate via perchromic acid as unstable intermediate. Here, the amount of chromic acetate is measured twice, once directly after adding H2O2 (t0min) and once again after the CAT (bovine origin) split the H2O2 for a period of 10 min (t10min) in the presence or absence of a putative inhibitor. Samples in this assay included a blank (+CAT/+DMF/−H2O2), a H2O2 standard (−CAT/+DMF/+H2O2), a negative control (+CAT/+DMF/+H2O2), and the test conditions (+CAT/+25 µM pentathiepin/+H2O2). For each condition, 3.0 mL of 0.002 mg/mL CAT in potassium phosphate buffer (50 mM, pH 7.4, EDTA 1.1 mM, Triton-X 0.01%) were prepared in a glass tube. Additionally, two tubes were prepared per condition each containing 2 mL of a reagent containing 1 part of an aqueous solution of K2Cr2O7 (5%) and 2 parts glacial acetic acid. Subsequently, the solvent or inhibitors were added, and the tubes placed on a shaker for 5 min. To start the reaction, 61.8 µL of a 30% H2O2 solution was added and then mixed, and immediately 1 mL was transferred to one tube containing the K2Cr2O7/acetic acid solution (t0min). The remaining 2 mL was incubated on a shaker for 10 min, and then the previous step was repeated (t10min). Finally, all tubes were boiled in a water bath and cooled down to room temperature, and then absorbance was measured at λ = 570 nm and the instrument was blanked with the blank solution. The difference in absorbance between t0min and t10min was calculated, and all samples were related to the negative control.

Setting [1] is: absolute IC50 (interpolation, 50% of GPx1 inhibited), read-out: Abs. IC50 (SD).
Where [2] appears, read: relative IC50 (inflection point of dose-response graph), t-BHP substrate, read-out: Rel. IC50 (CI 95%).
Setting [3] is: residual GPx1 activity at highest tested concentration of 12.5 µM.

The term IC50 denotes the concentration at which inhibition is half-maximal. The term remaining activity denotes the signal under treatment as a percentage of the control signal.

Where two headings read alike, the source gives them in different places.

Regarding `CCOc1c2c(c3cnc4[nH]c(-c5ccc(OC)cc5)cc4n13)SSSSS2` [Compound 1, 11-Ethoxy-2-(4-methoxyphenyl)-3H-[1,2,3,4,5]pentathiepino[6′,7′:3,4]pyrrolo[1,2-a]pyrrolo[2,3-e]pyrazine], the figures for the IC50 at bovine erythrocyte GPx1 (setting [1]) and at bovine erythrocyte GPx1 (setting [2]) were 1490 nM and 920 nM, respectively. On bovine erythrocyte GPx1 (setting [3]), this compound yielded a remaining activity at 12.5 µM of 16%. Further, the “Residual Activity (%)” value on bovine erythrocyte GPx1 (residual GPx1 activity at highest tested concentration of 12.5 µM, 12.5 µM) came out at 16.4%. Further, the GPx1 inhibition entry at bovine erythrocyte GPx1 was “++”. In addition, the GR/CAT inhibition with GR/CAT is reported as 0.
On to `CCOc1c2c(c3ccc(C(=O)N4CCCCC4)cn13)SSSSS2` [Compound 2, (6-Ethoxy-[1,2,3,4,5]pentathiepino[6,7-a]indolizin-9-yl)(piperidinyl)methanone], for which the values for the half-maximal inhibitory concentration (IC50) on bovine erythrocyte GPx1 (setting [1]) and on bovine erythrocyte GPx1 (setting [2]) were 3250 nM and 2280 nM, respectively. On bovine erythrocyte GPx1 (setting [3]), this compound gave a remaining activity at 12.5 µM of 27.5%. Further, the GPx1 inhibition entry at bovine erythrocyte GPx1 is reported as “+”. Further, the GR/CAT inhibition in the test with GR/CAT came to 0.
For `CCOc1c2c(c3ccc(C(=O)N4CCOCC4)cn13)SSSSS2` [Compound 3, (6-Ethoxy-[1,2,3,4,5]pentathiepino[6,7-a]indolizin-9-yl)(morpholino)methanone] the same measures were 910 nM, 560 nM, 29%, “++” and 0.
Regarding `CCOc1c2c(c3ccc(C(=O)N(CC)CC)cn13)SSSSS2` [Compound 4, 6-Ethoxy-N,N’-diethyl-[1,2,3,4,5]pentathiepino[6,7-a]indolizine-9-carboxamide], the IC50 at bovine erythrocyte GPx1 (setting [1]) turned out to be 750 nM; on bovine erythrocyte GPx1 (setting [2]) it was 600 nM. This compound also gave a remaining activity at 12.5 µM on bovine erythrocyte GPx1 (setting [3]) of 27.9%. Also, at bovine erythrocyte GPx1, the GPx1 inhibition entry is listed as “++”. Moreover, the GR/CAT inhibition in the test on GR/CAT came to 0.
For `CCOc1c2c(c3ccc(C(=O)N4CCN(C(=O)c5ccc(F)cc5)CC4)cn13)SSSSS2` [Compound 5, (6-Ethoxy-[1,2,3,4,5]pentathiepino[6,7-a]indolizin-9-yl)(4-(4-fluorobenzoyl)piperazinyl)methanone] the same measures were 1170 nM, 630 nM, 28.7%, “++” and 0.
In the case of `CCOc1c2c(c3ccc(C(=O)N4CCN(S(=O)(=O)c5ccc(C)cc5)CC4)cn13)SSSSS2` [Compound 6, (6-Ethoxy-[1,2,3,4,5]pentathiepino[6,7-a]indolizin-9-yl)(4-tosylpiperazinyl)methanone], the IC50 at bovine erythrocyte GPx1 (setting [1]) and on bovine erythrocyte GPx1 (setting [2]) was more than 12500 nM throughout. Also, the “decrease of the activity of the bovine GPx” value at bovine erythrocyte GPx1 (at 12.5 µM) is on record as not above 50%. This compound displayed a remaining activity at 12.5 µM on bovine erythrocyte GPx1 (setting [3]) of 53.3%. The compound further yielded a GPx1 inhibition on bovine erythrocyte GPx1 of 0. The GR/CAT inhibition in the test with GR/CAT was 0.

Source of the values: article PMC8305076, “Comprehensive Evaluation of Biological Effects of Pentathiepins on Various Human Cancer Cell Lines and Insights into Their Mode of Action” (International Journal of Molecular Sciences, 2021).
